Test results reported in the supplement of paper PMC8617591.

Experiments:
[1] = test system: Mycobacterium tuberculosis Erdman (autoluminescent); test: total FIC50 (Loewe) at 50% inhibition, three-drug combination (log2); higher = more antagonistic
Experimental: (§1)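 DiaMOND equipotent three-drug combination dose responses (10 doses, 1.5- or 2-fold spacing, centred on IC90) against autoluminescent M. tuberculosis Erdman in 8 in vitro models. Read-out is OD600, or luminescence for the intracellular and dormancy models, normalised to untreated wells. Hill-fit Einf, AUC25 and GRinf are potency metrics; FIC50 and FIC90 are total Loewe fractional inhibitory concentrations as log2 (negative = synergy).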

[2] = test system: Mycobacterium tuberculosis Erdman (autoluminescent); test: total FIC90 (Loewe) at 90% inhibition, three-drug combination (log2); higher = more antagonistic
Experimental: as §1

[3] = test system: Mycobacterium tuberculosis Erdman (autoluminescent); test: Einf, fitted maximum growth inhibition of three-drug combination (fraction); higher = stronger maximal inhibition
Experimental: as §1

[4] = test system: Mycobacterium tuberculosis Erdman (autoluminescent); test: AUC25, normalised area under dose response up to IC25 (three-drug combination) (fraction (0-1)); higher = more potent at low dose
Experimental: as §1

[5] = test system: Mycobacterium tuberculosis Erdman (autoluminescent); test: GRinf, maximum normalised growth rate inhibition (three-drug combination) (unitless (-1 to 1)); higher = less effect (negative = killing)
Experimental: as §1

NNC(=O)c1ccncc1 [isoniazid] + COc1c(N2C[C@@H]3CCCN[C@@H]3C2)c(F)cc2c(=O)c(C(=O)O)cn(C3CC3)c12 [moxifloxacin] + CO[C@H]1/C=C/O[C@@]2(C)Oc3c(C)c(O)c4c(O)c(c(/C=N/N5CCN(C6CCCC6)CC5)c(O)c4c3C2=O)NC(=O)/C(C)=C\C=C\[C@H](C)[C@H](O)[C@@H](C)[C@@H](O)[C@@H](C)[C@H](OC(C)=O)[C@@H]1C [rifapentine]
Conditions	AUC25, [4]	Einf, [3]	GRinf, [5]	total FIC50, [1]	total FIC90, [2]
in vitro model: acidic pH 5.7, time point: constant (~7 days, model-specific)	0.0764	0.856	-0.0715	0.631	–
in vitro model: acidic pH 5.7, time point: terminal (~4-5 doublings, model-specific)	0.0472	0.974	-0.112	0.694	0.483
in vitro model: intracellular J774, time point: constant = terminal	–	0.952	-0.208	–	0.563

Conditions	AUC25, [4]	Einf, [3]	GRinf, [5]	total FIC50, [1]	total FIC90, [2]
in vitro model: butyrate, time point: constant (~7 days, model-specific)	0.0757	0.917	0.00281	0.673	0.414
in vitro model: butyrate, time point: terminal (~4-5 doublings, model-specific)	0.0584	0.965	0.00571	0.595	0.447
in vitro model: cholesterol 0.05 mM, time point: constant (~7 days, model-specific)	0.102	0.644	-0.051	0.862	–
in vitro model: cholesterol 0.05 mM, time point: terminal (~4-5 doublings, model-specific)	0.0878	0.88	-0.115	0.866	0.95
in vitro model: cholesterol-high 0.2 mM, time point: constant (~7 days, model-specific)	0.0823	0.922	-0.472	0.636	–
in vitro model: cholesterol-high 0.2 mM, time point: terminal (~4-5 doublings, model-specific)	0.0703	1	-0.778	0.916	0.976
in vitro model: dormancy (butyrate + nitrate, low O2), time point: constant (~7 days, model-specific)	0.0676	0.866	0.268	0.401	0.429
in vitro model: dormancy (butyrate + nitrate, low O2), time point: terminal (~4-5 doublings, model-specific)	0.0486	0.97	-0.0791	0.655	0.61
in vitro model: standard 7H9 glycerol, time point: constant = terminal	0.0438	0.911	0.0464	0.774	0.752
in vitro model: valerate, time point: constant (~7 days, model-specific)	0.0564	0.866	-0.0209	0.608	–
in vitro model: valerate, time point: terminal (~4-5 doublings, model-specific)	0.0386	0.933	-0.00377	0.659	0.621

NNC(=O)c1ccncc1 [isoniazid] + COc1c(N2C[C@@H]3CCCN[C@@H]3C2)c(F)cc2c(=O)c(C(=O)O)cn(C3CC3)c12 [moxifloxacin] + CO[C@H]1/C=C/O[C@@]2(C)Oc3c(C)c(O)c4c(O)c(c(/C=N/N5CCN(C)CC5)c(O)c4c3C2=O)NC(=O)/C(C)=C\C=C\[C@H](C)[C@H](O)[C@@H](C)[C@@H](O)[C@@H](C)[C@H](OC(C)=O)[C@@H]1C [rifampicin]
Conditions	AUC25, [4]	Einf, [3]	GRinf, [5]	total FIC50, [1]	total FIC90, [2]
in vitro model: acidic pH 5.7, time point: constant (~7 days, model-specific)	0.0693	0.835	-0.0692	0.568	–
in vitro model: acidic pH 5.7, time point: terminal (~4-5 doublings, model-specific)	0.0605	0.974	-0.11	0.624	0.457
in vitro model: intracellular J774, time point: constant = terminal	–	0.969	-0.238	–	0.594

Conditions	AUC25, [4]	Einf, [3]	GRinf, [5]	total FIC50, [1]	total FIC90, [2]
in vitro model: butyrate, time point: constant (~7 days, model-specific)	0.104	0.934	-0.00353	0.315	0.977
in vitro model: butyrate, time point: terminal (~4-5 doublings, model-specific)	0.0772	0.969	0.000303	0.345	0.38
in vitro model: cholesterol 0.05 mM, time point: constant (~7 days, model-specific)	0.0843	0.603	0.0201	0.719	–
in vitro model: cholesterol 0.05 mM, time point: terminal (~4-5 doublings, model-specific)	0.0746	0.87	-0.125	1.04	0.125
in vitro model: cholesterol-high 0.2 mM, time point: constant (~7 days, model-specific)	0.0802	0.879	-0.196	0.265	–
in vitro model: cholesterol-high 0.2 mM, time point: terminal (~4-5 doublings, model-specific)	0.0682	1	-0.836	0.508	0.443
in vitro model: dormancy (butyrate + nitrate, low O2), time point: constant (~7 days, model-specific)	0.0766	0.882	0.232	0.163	-0.336
in vitro model: dormancy (butyrate + nitrate, low O2), time point: terminal (~4-5 doublings, model-specific)	0.0621	0.98	-0.102	0.14	0.342
in vitro model: standard 7H9 glycerol, time point: constant = terminal	0.0275	0.873	0.197	0.736	–
in vitro model: valerate, time point: constant (~7 days, model-specific)	0.0382	0.865	0.0264	0.773	–
in vitro model: valerate, time point: terminal (~4-5 doublings, model-specific)	0.0263	0.93	0.0382	0.731	0.407

NNC(=O)c1ccncc1 [isoniazid] + COc1c(N2C[C@@H]3CCCN[C@@H]3C2)c(F)cc2c(=O)c(C(=O)O)cn(C3CC3)c12 [moxifloxacin] + NC(=O)c1cnccn1 [pyrazinamide]
Conditions	AUC25, [4]	Einf, [3]	GRinf, [5]	total FIC50, [1]	total FIC90, [2]
in vitro model: acidic pH 5.7, time point: constant (~7 days, model-specific)	0.0943	0.811	-0.673	-1.74	–
in vitro model: acidic pH 5.7, time point: terminal (~4-5 doublings, model-specific)	0.0851	0.971	-0.382	-2.52	-1.33
in vitro model: intracellular J774, time point: constant = terminal	–	0.997	-0.252	–	0.681

Conditions	AUC25, [4]	Einf, [3]	GRinf, [5]	total FIC50, [1]	total FIC90, [2]
in vitro model: butyrate, time point: constant (~7 days, model-specific)	0.0913	0.951	-0.232	-1.78	-0.791
in vitro model: butyrate, time point: terminal (~4-5 doublings, model-specific)	0.0549	0.975	-0.195	-1.66	-1.72
in vitro model: cholesterol 0.05 mM, time point: constant (~7 days, model-specific)	0.0921	0.697	-0.188	–	–
in vitro model: cholesterol 0.05 mM, time point: terminal (~4-5 doublings, model-specific)	0.0805	0.887	-0.177	-0.327	–
in vitro model: cholesterol-high 0.2 mM, time point: constant (~7 days, model-specific)	0.0786	0.911	-0.235	0.416	–
in vitro model: cholesterol-high 0.2 mM, time point: terminal (~4-5 doublings, model-specific)	0.0668	0.981	-0.527	0.819	0.533
in vitro model: dormancy (butyrate + nitrate, low O2), time point: constant (~7 days, model-specific)	0.0724	0.877	0.245	-2.06	-2.38
in vitro model: dormancy (butyrate + nitrate, low O2), time point: terminal (~4-5 doublings, model-specific)	0.0689	0.984	-0.161	-1.92	-1.58
in vitro model: standard 7H9 glycerol, time point: constant = terminal	0.0639	0.983	-0.168	–	–
in vitro model: valerate, time point: constant (~7 days, model-specific)	0.117	0.877	0.0249	-1.97	–
in vitro model: valerate, time point: terminal (~4-5 doublings, model-specific)	0.0825	0.931	0.0159	-1.91	-1.83
